# Reference: patent US8242142B2, “Cyclohexylamines, phenylamines and uses thereof” (The Regents of the University of California, priority 2008, dated 2012)
# Read-outs that look alike come from different tables or passages of the source.
# Key:
# [1] = tested on: Gli:GFP expression (Hh signaling); test: Gli:GFP transgenic zebrafish embryo assay; type: in vivo; details: for concentration at which inhibition of Hh signaling starts to show: zebrafish embryo assays; for concentration that blocks/abolishes Gli:GFP expression: zebrafish embryos
# From the text: Generation of Gli:GFP transgenic zebrafish. […] The PCR product digested with Nhe1 and Mlu1 was ligated to GFP and used to generate transgenic zebrafish by microinjection.
# Image acquisition and analysis.
# mouse Smo = test: FRET analysis of Smo conformation in NIH-3T3 cells; type: cell-based; details: for basal FRET of mSmo-CFPN/mSmoYFPN (N-termini): SANT74 or SANT75 50 nM, SAG 100 nM, with or without Shh; for Shh-induced decrease in FRET from mSmo-CFPL2YFPC (FRETL2C) / Shh-induced increase in FRET between mSmo-CFPC and mSmo-YFPC (FRETC): 50 nM, with Shh
# Protocol: FRET analysis using confocal microscopy. Effect of SAG, compound 21a (SANT74), and compound 21b (SANT75) on mSmo conformational change was tested by FRET in NIH-3T3 cells that were co-transfected with mouse Smo CFP and Smo YFP reporter constructs. The construction of mSmo-CFP^C/YFP^C, mSmo-CFP^N/YFP^N, and mSmo-CFP^L2YFP^C was performed as described in Zhao Y. Tong C, Jiang J., “Hedgehog regulates smoothened activity by inducing a conformational switch” Nature, 2007; 450:252-8; incorporated herein by reference. NIH-3T3 cells were cultured in DMEM containing 10% bovine calf serum and antibiotics PS at 5% CO2 in a humidified incubator. Transfection was carried out using FuGENE6 (Roche). For FRET analysis of cultured cells, CFP- and YFP-tagged constructs were transfected into NIH-3T3 cells. Transfected cells were treated in the presence of compounds with or without Shh-conditioned medium. Cells were washed with PBS, fixed with 4% formaldehyde for 20 min, and mounted on slides in 80% glycerol. Fluorescence signals were acquired with the 100× objective of a Zeiss LSM510 confocal microscope. CFP was excited by 458 nm light and the emission was collected through BP 480-520 nm filter. YFP was excited by 514 nm light and the emission was collected through BP 535-590 nm filter. CFP signal was obtained once before and once after photobleaching YFP using the full power of the 514 nm laser line for 1-2 min at the top half of each cell, leaving the bottom half unbleached that serves as an internal control. The intensity of CFP was analyzed using the Metamorph software (Universal Imaging Corn). Energy transfer efficiency was calculated using the formula: FRET %=(CFPAP−CFPBP/CFPAP)×100. Each data set was based on 10-15 individual cells. In each cell, four to five regions of interest in the photobleached area were selected for analysis.
# Stability remarks = type: physicochemical; details: in our studies
# [2] = tested on: Hh signal pathway target genes Ptch1 and Gli1 mRNA; test: Quantitative real-time PCR of Hh target genes in zebrafish embryos; type: in vivo; details: dose dependent; for Ptch1 mRNA level: FIG. 1A; for Gli1 mRNA level: FIG. 1B
# Protocol: Quantitative Real-time PCR. The larvae were exposed to different concentrations of small molecules from 2 hpf. Total RNA was extracted from the embryos at 36 hpf using the Trizol kit (Ambion, Austin, Tex.) according to the manufacturer's instructions. Three groups per treatment, each composed of 20 embryos, were assayed using SYBRGreen qPCR kit by real-time PCR (ABI Prism 7700 Sequence Detector System).
# zebrafish embryos = test: Zebrafish embryo phenotype analysis (insulin:GFP beta cells, Flk:GFP intersegmental vessels, somites); type: in vivo; details: for off-target toxicity: whole zebrafish embryo assays
# Protocol: If SANT74 and SANT75 are specific inhibitors of Hh treating, zebrafish embryos should only produce these well-characterized phenotypes. […] Using these criteria, the specificity of SANT74 and 75 in zebrafish was evaluated.
# As a utility of this new inhibitor, timing requirement of Hh for normal somite formation and sprouting of ISV was tested by adding and washing away SANT74 at various developmental stages followed by phenotypic analysis.
# Shh-LIGHT2 cells = test: Compound activities in Shh-LIGHT2 cells (Gli-dependent luciferase reporter); type: cell-based; details: Shh Light2, Shh-N-conditioned medium, luciferase reporter activity
# Protocol: Shh-LIGHT2 cells (ATCC CRL-2795), a NIH-3T3 cell line stably incorporating Gli-dependent firefly luciferase and thyrmidine kinase promoter-driven Renilla luciferase reporters (Taipale J, Chen J K, Cooper M K, Wang B. Mann R K, Milenkovic L. et al. “Effects of oncogenic mutations in Smoothened and Patched can be reversed by cyclopamine” Nature 2000; 406:1005-9; incorporated herein by reference), were cultured to confluency in 96-well plates using DMEM medium containing 10% calf serum, 100 U/mL penicillin, and 100 μg/mL streptomycin. The cells were then treated with various concentrations of the compounds in DMEM containing 0.5% calf serum and a 1:20 dilution of Shh-N-conditioned medium (Chen J. K., Taipale J. Young K. E., Maiti T Beachy P. A., “Small molecule modulation of Smoothened activity” Proc. Natl. Acad. Sci. U.S.A., 2002; 99:14071-6; incorporated herein by reference). The cells were cultured for an additional 30 h under standard conditions. Firefly and Renilla luciferase activities were measured on a Veritas luminometer (Turner Biosystems) using a dual luciferase kit (Promega) according to the manufacturers' protocols.
# mouse Smoothened = molecular target: T1, mouse Smoothened (Mus musculus, UniProt P56726); test: Smo-binding assay (BODIPY-cyclopamine competition, HEK 293T cells); details: 5 nM BODIPY-cyclopamine, Smo-overexpressing HEK 293T cells
# T1 construct: expressed in transfected cells; host or cells: HEK 293T
# T1 sequence (P56726 33-793): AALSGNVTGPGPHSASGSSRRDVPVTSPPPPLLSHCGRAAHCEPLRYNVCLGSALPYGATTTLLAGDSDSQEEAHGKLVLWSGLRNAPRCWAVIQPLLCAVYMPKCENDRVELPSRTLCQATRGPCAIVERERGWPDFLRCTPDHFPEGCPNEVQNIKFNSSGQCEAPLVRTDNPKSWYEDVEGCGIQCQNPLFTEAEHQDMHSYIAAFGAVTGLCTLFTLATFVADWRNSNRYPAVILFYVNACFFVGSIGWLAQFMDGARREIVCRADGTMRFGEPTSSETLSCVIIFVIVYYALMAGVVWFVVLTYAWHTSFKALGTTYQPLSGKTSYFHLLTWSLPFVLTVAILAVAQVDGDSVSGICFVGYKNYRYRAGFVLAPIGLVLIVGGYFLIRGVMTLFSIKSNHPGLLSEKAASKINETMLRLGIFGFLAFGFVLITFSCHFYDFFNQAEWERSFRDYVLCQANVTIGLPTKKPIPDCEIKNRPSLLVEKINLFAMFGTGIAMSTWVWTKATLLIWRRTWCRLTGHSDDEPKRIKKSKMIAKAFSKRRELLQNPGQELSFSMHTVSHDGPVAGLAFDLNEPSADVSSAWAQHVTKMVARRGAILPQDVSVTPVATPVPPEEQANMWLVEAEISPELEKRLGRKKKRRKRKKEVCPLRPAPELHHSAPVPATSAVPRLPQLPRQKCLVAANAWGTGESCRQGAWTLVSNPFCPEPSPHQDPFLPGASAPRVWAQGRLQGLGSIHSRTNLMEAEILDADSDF
# Protocol: Smo-binding assay. HEK 293T cells were cultured in DMEM containing 10% fetal bovine serum, 100 U/mL penicillin, and 100 μg/mL streptomycin to 50% confluency in 96-well plates and then transfected with a CMV promoter-driven mouse Smoothened-Myc3 expression construct (100 ng cDNA/well) with Fugene 6 (Roche) according to the manufacturer's protocols. After 12 h the cells were incubated with DMEM containing 0.5% fetal bovine serum, 10 μM Hoechst 33342, 5 nM BODIPY-labeled cyclopamine (Chen J. K., Taipale J, Cooper M. K., Beachy P. A., “Inhibition of Hedgehog signaling by direct binding of cyclopamine to Smoothened” Genes Dev., 2002; 16:2743-8; incorporated herein by reference), and various concentrations of compound 75 for 1 h. The cells were washed two times with PBS buffer and then imaged in DMEM containing 0.5% fetal bovine serum using an ImageXpress 5000A microscopy system (Molecular Devices).
SMILES,basal FRET of mSmo-CFPN/mSmoYFPN (N-termini) (mouse Smo),stability (Stability remarks),Ptch1 mRNA level [2],Gli1 mRNA level [2],off-target toxicity (zebrafish embryos),concentration at which inhibition of Hh signaling starts to show [1] [µM],concentration that blocks/abolishes Gli:GFP expression [1] [µM],Shh-induced decrease in FRET from mSmo-CFPL2YFPC (FRETL2C) (mouse Smo),Shh-induced increase in FRET between mSmo-CFPC and mSmo-YFPC (FRETC) (mouse Smo),further results
"CNC1CCC(N(Cc2cccc(-c3ccncc3)c2)C(=O)c2sc3ccccc3c2Cl)CC1 (stereo not drawn) [SAG, reference compound]",not affected,,,,,,,,,"effect on Gli:GFP expression ([1]; same condition as SANT19, approximately 80 μM): no effect; FRETC (mouse Smo; 100 nM, independent of Shh): increase; FRETL2C (mouse Smo; 100 nM, independent of Shh): decrease"
"C=CCN[C@H]1CC[C@H](N(Cc2cccc(-c3ccncc3)c2)C(=O)c2sc3ccccc3c2Cl)CC1 [SANT74, N-(trans-4-(allylamino)cyclohexyl)-3-chloro-N-(3-(pyridin-4-yl)benzyl)benzo[b]thiophene-2-carboxamide]",not affected,relatively stable,reduced,reduced,no obvious off-target toxicity,5,20,blocked,blocked,"intersegmental blood vessels (ISV) (zebrafish embryos; 20 μM, Flk:GFP transgenic zebrafish): significantly reduced; insulin:GFP cells (zebrafish embryos; 20 μM, insulin:GFP transgenic zebrafish): significantly reduced; effect on sprouting of ISV (zebrafish embryos; added after 24 hpf): no longer had any effect; somite phenotype (zebrafish embryos; added for 4 hours before 21 hpf): induce U shape somite formation; sprouting of ISV (zebrafish embryos; added upon fertilization, washed away before 17 hpf): could occur normally; concentration at which embryos no longer developed any extended ISVs (zebrafish embryos; dose dependent inhibition of angiogenesis): ≥ 20 µM; circulation by microangiographic analysis (zebrafish embryos; embryos with defective ISVs): lacked circulation"
"CCCN[C@H]1CC[C@H](N(Cc2cccc(-c3ccncc3)c2)C(=O)c2sc3ccccc3c2Cl)CC1 [SANT75, 3-chloro-N-(trans-4-(propylamino)cyclohexyl)-N-(3-(pyridin-4-yl)benzyl)benzo[b]thiophene-2-carboxamide]",not affected,relatively stable,reduced,reduced,no obvious off-target toxicity,5,20,blocked,blocked,IC50 (Shh-LIGHT2 cells; read-out: IC50): 0.02 µM; BODIPY-cyclopamine/Smo binding (mouse Smoothened): effectively abrogate
"CC1=C2C[C@H]3[C@@H](CC=C4C[C@@H](O)CC[C@@]43C)[C@@H]2CC[C@]12O[C@@H]1C[C@H](C)CN[C@H]1[C@H]2C [cyclopamine, reference compound]",,,,,,,,,,"IC50 (Shh-LIGHT2 cells): 0.3 µM; Gli:GFP expression upon treatment ([1]; transgenic embryos, concentration not given): abolished"
